Results as given in US9693556B2, “Herbicidal pyridazinone derivatives” (SYNGENTA LIMITED, priority 2011, dated 2017).

What was measured:
Format in all cases: in vivo
[1] = system: Solanum nigrum (SOLNI); assay: Post-emergence herbicidal glasshouse test on Solanum nigrum; details: post-emergence, 1000 g/h, evaluated after 13 days
How it was run: (§1)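 Read-out: percentage herbicidal damage 13 days after spraying, given on a five-point scale (5=80-100%, 4=60-79%, 3=40-59%, 2=20-39%, 1=0-19%). Pots of standard soil; application at 1000 g/h, one day post-sowing for pre-emergence, eight days for post-emergence.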

[2] = system: Ipomoea hederacea (IPOHE); assay: Post-emergence herbicidal glasshouse test on Ipomoea hederacea; details: post-emergence, 1000 g/h, evaluated after 13 days
How it was run: as §1

[3] = system: Echinochloa crus-galli (ECHCG); assay: Pre-emergence herbicidal glasshouse test on Echinochloa crus-galli; details: pre-emergence, 1000 g/h, evaluated after 13 days
How it was run: as §1

[4] = system: Alopecurus myosuroides (ALOMY); assay: Post-emergence herbicidal glasshouse test on Alopecurus myosuroides; details: post-emergence, 1000 g/h, evaluated after 13 days
How it was run: as §1

[5] = system: Amaranthus retoflexus (AMARE); assay: Pre-emergence herbicidal glasshouse test on Amaranthus retoflexus; details: pre-emergence, 1000 g/h, evaluated after 13 days
How it was run: as §1

[6] = system: Ipomoea hederacea (IPOHE); assay: Pre-emergence herbicidal glasshouse test on Ipomoea hederacea; details: pre-emergence, 1000 g/h, evaluated after 13 days
How it was run: as §1

[7] = system: Echinochloa crus-galli (ECHCG); assay: Post-emergence herbicidal glasshouse test on Echinochloa crus-galli; details: post-emergence, 1000 g/h, evaluated after 13 days
How it was run: as §1

[8] = system: Solanum nigrum (SOLNI); assay: Pre-emergence herbicidal glasshouse test on Solanum nigrum; details: pre-emergence, 1000 g/h, evaluated after 13 days
How it was run: as §1

[9] = system: Setaria faberi (SETFA); assay: Pre-emergence herbicidal glasshouse test on Setaria faberi; details: pre-emergence, 1000 g/h, evaluated after 13 days
How it was run: as §1

[10] = system: Alopecurus myosuroides (ALOMY); assay: Pre-emergence herbicidal glasshouse test on Alopecurus myosuroides; details: pre-emergence, 1000 g/h, evaluated after 13 days
How it was run: as §1

[11] = system: Amaranthus retoflexus (AMARE); assay: Post-emergence herbicidal glasshouse test on Amaranthus retoflexus; details: post-emergence, 1000 g/h, evaluated after 13 days
How it was run: as §1

[12] = system: Setaria faberi (SETFA); assay: Post-emergence herbicidal glasshouse test on Setaria faberi; details: post-emergence, 1000 g/h, evaluated after 13 days
How it was run: as §1

| SMILES | POST Application SOLNI herbicidal damage (five point scale) [1] | POST Application IPOHE herbicidal damage (five point scale) [2] | PRE Application ECHCG herbicidal damage (five point scale) [3] | POST Application ALOMY herbicidal damage (five point scale) [4] | PRE Application AMARE herbicidal damage (five point scale) [5] | PRE Application IPOHE herbicidal damage (five point scale) [6] | POST Application ECHCG herbicidal damage (five point scale) [7] | PRE Application SOLNI herbicidal damage (five point scale) [8] | PRE Application SETFA herbicidal damage (five point scale) [9] | PRE Application ALOMY herbicidal damage (five point scale) [10] | POST Application AMARE herbicidal damage (five point scale) [11] | POST Application SETFA herbicidal damage (five point scale) [12] | other results |
| --- | --- | --- | --- | --- | --- | --- | --- | --- | --- | --- | --- | --- | --- |
| COCCn1cccc(-c2cnn(C)c(=O)c2O)c1=O [Compound 9.009] | 5 (5=80-100% damage) | 3 (3=40-59% damage) | 1 (1=0-19% damage) | 2 (2=20-39% damage) | 1 (1=0-19% damage) | 1 (1=0-19% damage) | 3 (3=40-59% damage) | 1 (1=0-19% damage) | 1 (1=0-19% damage) | 1 (1=0-19% damage) | 4 (4=60-79% damage) | 3 (3=40-59% damage) |  |
| Cn1ncc(-c2cc(Br)c(Br)cc2S(C)(=O)=O)c(O)c1=O [Compound 1.160] |  |  |  |  |  |  |  |  |  |  |  |  | herbicidal damage, POST Application SOLNI ([1]; five point scale): 5 (5=80-100% damage); herbicidal damage, POST Application IPOHE ([2]; five point scale): 5 (5=80-100% damage); herbicidal damage, PRE Application ECHCG ([3]; five point scale): 5 (5=80-100% damage); herbicidal damage, POST Application ALOMY ([4]; five point scale): 3 (3=40-59% damage); herbicidal damage, PRE Application AMARE ([5]; five point scale): 5 (5=80-100% damage); herbicidal damage, PRE Application IPOHE ([6]; five point scale): 2 (2=20-39% damage); herbicidal damage, POST Application ECHCG ([7]; five point scale): 5 (5=80-100% damage); herbicidal damage, PRE Application SOLNI ([8]; five point scale): 4 (4=60-79% damage); herbicidal damage, PRE Application SETFA ([9]; five point scale): 1 (1=0-19% damage); herbicidal damage, PRE Application ALOMY ([10]; five point scale): 1 (1=0-19% damage); herbicidal damage, POST Application AMARE ([11]; five point scale): 5 (5=80-100% damage); herbicidal damage, POST Application SETFA ([12]; five point scale): 4 (4=60-79% damage) |
| C=C(C)c1ccc(-c2cnn(C)c(=O)c2O)c(S(C)(=O)=O)c1 [Compound 1.140] | 5 (5=80-100% damage) | 5 (5=80-100% damage) | 5 (5=80-100% damage) | 5 (5=80-100% damage) | 5 (5=80-100% damage) | 2 (2=20-39% damage) | 5 (5=80-100% damage) | 5 (5=80-100% damage) | 1 (1=0-19% damage) | 5 (5=80-100% damage) | 5 (5=80-100% damage) | 3 (3=40-59% damage) |  |
| CC(C)[S+]([O-])c1ccccc1-c1cnn(C)c(=O)c1O (stereo not drawn) [Compound 1.043] | 5 (5=80-100% damage) | 4 (4=60-79% damage) | 1 (1=0-19% damage) | 2 (2=20-39% damage) | 1 (1=0-19% damage) | 1 (1=0-19% damage) | 4 (4=60-79% damage) | 1 (1=0-19% damage) | 1 (1=0-19% damage) | 1 (1=0-19% damage) | 5 (5=80-100% damage) | 4 (4=60-79% damage) |  |
| COc1ccc(Cn2cccc(-c3cnn(C)c(=O)c3O)c2=O)cc1 [Compound 9.004] | 4 (4=60-79% damage) | 3 (3=40-59% damage) | 1 (1=0-19% damage) | 1 (1=0-19% damage) | 1 (1=0-19% damage) | 1 (1=0-19% damage) | 1 (1=0-19% damage) | 1 (1=0-19% damage) | 1 (1=0-19% damage) | 1 (1=0-19% damage) | 4 (4=60-79% damage) | 1 (1=0-19% damage) |  |
| Cn1ncc(-n2ccc(C(F)(F)F)c(-c3ccc([N+](=O)[O-])cc3)c2=O)c(O)c1=O [Compound 7.009] | 5 (5=80-100% damage) | 5 (5=80-100% damage) | 5 (5=80-100% damage) | 5 (5=80-100% damage) | 5 (5=80-100% damage) | 4 (4=60-79% damage) | 5 (5=80-100% damage) | 5 (5=80-100% damage) | 5 (5=80-100% damage) | 5 (5=80-100% damage) | 5 (5=80-100% damage) | 5 (5=80-100% damage) |  |
| CCCOc1nn(C)c(=O)c(O)c1-c1ccc(C(F)(F)F)cc1S(C)(=O)=O [Compound 2.051, 4-hydroxy-2-methyl-5-[2-methylsulfonyl-4-(trifluoromethyl)phenyl]-6-propoxy-pyridazin-3-one] | 5 (5=80-100% damage) | 5 (5=80-100% damage) | 5 (5=80-100% damage) | 5 (5=80-100% damage) | 5 (5=80-100% damage) | 4 (4=60-79% damage) | 5 (5=80-100% damage) | 5 (5=80-100% damage) | 3 (3=40-59% damage) | 5 (5=80-100% damage) | 5 (5=80-100% damage) | 5 (5=80-100% damage) |  |
| Cc1c(-c2cnn(C(F)F)c(=O)c2O)ccc(S(C)(=O)=O)c1C1=NOCC1 [Compound 1.005] | 5 (5=80-100% damage) | 5 (5=80-100% damage) | 5 (5=80-100% damage) | 4 (4=60-79% damage) | 5 (5=80-100% damage) | 1 (1=0-19% damage) | 5 (5=80-100% damage) | 3 (3=40-59% damage) | 5 (5=80-100% damage) | 1 (1=0-19% damage) | 5 (5=80-100% damage) | 5 (5=80-100% damage) |  |
| Cn1ncc(-c2cc3cc(F)cnc3n(-c3ccsc3)c2=O)c(O)c1=O [Compound 1.074] | 5 (5=80-100% damage) | 5 (5=80-100% damage) | 4 (4=60-79% damage) | 2 (2=20-39% damage) | 5 (5=80-100% damage) | 1 (1=0-19% damage) | 5 (5=80-100% damage) | 1 (1=0-19% damage) | 1 (1=0-19% damage) | 2 (2=20-39% damage) | 5 (5=80-100% damage) | 5 (5=80-100% damage) |  |
